# Assay: Human HepG2 cell viability assay in 384 well format
# Type: toxicity, cell-based
# Design: dose 125 nL, time 70.5 hour; cytotoxicity at 70.5 h: concentration not given beside the values
# Conditions: HepG2 cells, read-out: Inhibition
row,SMILES,cytotoxicity at 70.5 h
1,N#Cc1ccccc1NC(=O)c1ccc2c(c1)OCO2,-0.874%
2,O=C1CC(N2CCN(c3ccc(O)cc3)CC2)C(=O)N1Cc1cccs1 (stereo unspecified),-7.69%
3,O=c1c2c(ncn1CCO)nc1n2CCC1,-5.61%
4,O=C1CC(N2CCN(c3ccc(F)cc3)CC2)C(=O)N1Cc1cccs1 (stereo unspecified),-12.3%
5,O=C1NC2(CCN(C(=O)Cc3ccsc3)CC2)CC1c1ccncc1 (stereo unspecified),-4.21%
6,CN(C)C(=O)NC1COC2(CCN(Cc3nccn3C)CC2)C1 (stereo unspecified),2.06%
7,O=C(c1ccc2[nH]ccc2c1)N1CCn2cnc(COCC3CC3)c2C1,-4.35%
8,CCC1=N[C@@]2(CC[C@@H]3CN(S(=O)(=O)N(C)C)C[C@@H]32)C(=O)N1CC(C)C,-3.81%
9,CCc1ccc(NC(=O)N2C[C@H]3C[C@H](C(=O)NC)[C@@H](C2)O3)cc1,3.53%
10,CN(C)Cc1nn(C)c2c1CCN(S(=O)(=O)c1cccs1)C2,1.38%
11,CCO[C@@H]1CO[C@@]2(CCCN(C(=O)COc3ccccc3OC)C2)C1,-9.81%
12,Cn1ncc2c1C(COCC1CC1)CN(Cc1nccs1)C2 (stereo unspecified),6.16%
13,CO[C@@H]1CC[C@H]2[C@H]1OCCN2C(=O)c1ccc(C)o1,46.9%
14,Cc1ccsc1C(=O)N1CC(C(=O)NCC2CC2)C2(CCOCC2)C1 (stereo unspecified),7.19%
15,Cc1ccsc1C(=O)N1CC(C(=O)N2CCOCC2)C2(CCOCC2)C1 (stereo unspecified),24.8%
16,O=C(c1cscn1)N1C[C@@H]2C[C@@H](c3nnc(C4CC4)o3)O[C@@H]2C1,-8.28%
17,Cc1ncsc1CN1CC[C@H]2C[C@H](c3ccncn3)O[C@@H]2C1,-12.4%
18,O=C(CC1CC1)N1CCn2cc(Cn3cncn3)nc2C1,-18.5%
19,COCC(=O)N1Cc2cn(C)nc2C(COc2cccnc2)C1 (stereo unspecified),9.02%

row,SMILES,cytotoxicity at 70.5 h
1,CCOc1cc(C(=O)n2cccn2)cc(OCC)c1OCC,-6.27%
2,Cc1c(Br)cnn1CC(=O)Nc1ccon1,-7.55%
3,Cc1cc(NC(=O)Cn2ncc(Br)c2C)no1,-2.58%
4,O=C(c1n[nH]cc1Cl)N1CCSCC1,-9.46%
5,CCCN1C(=O)c2ccccc2C1OC (stereo unspecified),-6.48%
6,CNC(=O)C1CCN(S(C)(=O)=O)CC1,-10.2%
7,O=C(O)c1cccc2c(Br)cccc12,-0.692%
8,Cc1ccc(CNC(=O)CCC(=O)NCCC(C)C)o1,18.9%
9,O=C(CCC(=O)NCc1cccc(Br)c1)NCCN1CCCC1,23.6%
10,CN(C)c1nc2n(c(=O)n1)CCN2C(=O)Nc1ccc(Cl)cc1,-6.29%
11,CN(C)c1nc2n(c(=O)n1)CCN2C(=O)Nc1ccc(Cl)c(Cl)c1,-10.9%
12,O=C(COCC(=O)N(c1ccccc1)c1ccccc1)N1CCOCC1,-5.79%
13,O=C(c1ccnn1COc1ccc(Cl)cc1)N1CCCC1,-1.93%
14,CCNc1nc(N(C)C)nc(-n2cnc(SC)n2)n1,-12%
15,CSc1ncn(-c2nc(NC3CC3)nc(N(C)C)n2)n1,-25.9%
16,CCN(c1ccccc1C(=O)O)S(=O)(=O)c1cccc2cccnc12,1.89%
17,CCc1oc2ccc(NS(=O)(=O)CC)cc2c1C(=O)OC,-5.49%
18,Cc1cc(N2CCC(Cc3cccnc3)CC2)ncn1,23.3%
19,Cc1cc(N2CCC(Cc3ncccn3)C2)ncn1 (stereo unspecified),-6.02%

row,SMILES,cytotoxicity at 70.5 h
1,NC(=O)c1cn[nH]c1C1CCCN1C(=O)c1ccccn1 (stereo unspecified),-4.23%
2,O=C(CO)N1CCCC(c2cc(C(F)(F)F)[nH]n2)C1 (stereo unspecified),-2.3%
3,Cc1n[nH]c(C)c1S(=O)(=O)N1CCC(Oc2ccccc2F)CC1,-7.37%
4,Nc1cc(-c2cncnc2C2CCN(C(=O)c3ccccc3)C2)ccn1 (stereo unspecified),2.08%
5,O=C(NCC1(O)COCCN(Cc2cccc(O)c2)C1)c1cscn1 (stereo unspecified),-7.81%
6,Cc1cc(-c2ccc(=O)n(C3CCN(S(=O)(=O)N(C)C)CC3)n2)c(C)o1,3.38%
7,CCS(=O)(=O)N1CCC(n2nc(-c3cc(C)oc3C)ccc2=O)CC1,24.5%
8,CCN1CCCC1CNCc1cc2ccccc2[nH]c1=O (stereo unspecified),-5.02%
9,COc1cccc(-c2nccc(C3CCCN3C)n2)c1 (stereo unspecified),26.3%
10,CN1CCCCC1c1ccc(-n2ccnc2)nc1 (stereo unspecified),-2.08%
11,Cc1cc(C)nc(C2CCCN2C(=O)c2cnco2)n1 (stereo unspecified),33.6%
12,COCCN1CCCC1c1ccnc(-c2ccccc2)n1 (stereo unspecified),-4.49%
13,CCn1cc(S(=O)(=O)N2CCCC3(CC=CNC3=O)C2)cn1 (stereo unspecified),-0.325%
14,COc1ccccc1C1(O)CCCN(C(=O)c2csc(C(C)=O)c2)C1 (stereo unspecified),-1.27%
15,CC(C)c1nc(O)c2nnn(C[C@H]3CCCN(Cc4ccsc4)C3)c2n1,-1.06%
16,CCN1CCCC1CNCc1cc2cc(OC)ccc2[nH]c1=O (stereo unspecified),-0.0295%
17,COc1cccc(CCC2CCCCN2)c1 (stereo unspecified),0.0655%
18,CC(C)(C)OC(=O)N1CCN(c2cccnc2)CC1C(=O)O (stereo unspecified),-0.358%
